The results in this text go back to patent US11179474B1, “Nanoparticle-based liver-targeting therapy and imaging” (priority 2015, dated 2021).

Where no end group is shown, it is not given here.

The test system of one data set is HCC cells. The experiment in a line: In vitro targeting of GNPs to HCC cells (counts per field at 20x magnification). It counts as cell-based. To be noted: relative to base GNP lacking the peptide. An excerpt: (SEQ ID NO: 1), via its N-terminus (approx. 4 peptide molecules per nanoparticle).
Several base/peptide targeted GNPs were screened in vitro. GNPs having a mixed corona comprising galactose-C2-SH (Gal-C2) ligands and HSPEG8COOH were synthesised according to methodology analogous to that described above in Examples 1 and 2, with however galactose-C2-SH replacing glucose-C2-SH and HSPEG8COOH (also abbreviated SH-EG6-COOH or SH—(OCH2CH2)6-COOH) replacing the amino linker NH2-EG6-SH.
The glypican-3 peptide described in U.S. Pat. No. 8,388,937B2 (the contents of which are expressly incorporated herein by reference)—see SEQ ID NO: 1 thereof, which has the amino acid sequence: […] (SEQ ID NO: 1) was linked to the terminal COOH group of a proportion of the HSPEG8COOH ligands via the N-terminus of said peptide. In a “high loading” GNP construct (see row 1 in the table below), approximately 4 peptides were linked per nanoparticle core. The “high loading” Au@Gal-C2:HSPEG8COOH:HSPEG8CONH[…] The “low loading” Au@Gal-C2:HSPEG8COOH:HSPEG8CONH[…]

The next data set has as its system HepG2. In words: MTT cell viability assay, payload-carrying LacLL nanoparticles vs free drug. Format: cell-based, human. The following applies: for IC50: HepG2, concentration based on drug amount, FIG. 7: 72 h after treatment. As for the experimental part:
The human hepatocellular carcinoma cell line HepG2 was used in the assay.
HepG2 cells were grown in a T-75 flask. For the transfer of the cell the medium was removed from the flask and the cells were trypsinated for 5 minutes. The cells were collected in a Falcon tube and diluted with complete cell medium. The cell counting was conducted in a Neubauer chamber. A cell solution was prepared to seed 4000 cells per well (200 μL per well). The microtiter plate was incubated for 24 h at 37° C.
For each NP and drug, formulations in cell medium were prepared. The compounds were tested in different concentrations (0.01, 0.05, 0.2, 1, 5, 25 and 125 μM based on drug amount). For the treatment, the cell medium was removed from all wells and exchanged for drug formulations. 200 μl of treatments per triplicate was added to each well. The microtiter plates were incubated for 24 h, 48 h and 72 h at 37° C.
1.5 mL MTT solution (8.0 mg in 1.6 mL DMSO) was diluted with complete cell medium (phenol-red free). The treatment cell medium was removed from the microtiter plate, the wells were washed with 100 μL PBS and 100 μL of the MTT reactive solution was added to each well. After one hour incubation at 37° C. the MTT solution was removed and 100 μL DMSO was added to dissolve the formazan dye. Absorbance was measured at 570 nm.
Data were analysed using OriginPro8. The normalized data were plotted and the curve was fitted using a non-linear regression curve fit (sigmoidal dose-response curve with variable slope). The Absolute IC50 values were obtained by interpolation.
A general note: Tetrazolium assays rely on reduction of a dye to a coloured formazan, in cell work by metabolically active cells.

Data set [1] has as its target T1, glypican-3 (on HCC cells) (UniProt P51654 25-554).
T1 construct: whole, on cells; also called GLY-3
The experiment in a line: in vitro targeting of GNPs to HCC cells, relative to base GNP lacking the peptide.

Data set [2] deals with T1, glypican-3 (on HCC cells). The experiment in a line: in vitro targeting of GNPs to HCC cells, counts per field at 20x magnification, relative to base GNP lacking the peptide.
Data set [3] concerns the target T1, glypican-3 (on HCC cells). The experiment in a line: in vitro targeting of GNPs to HCC cells, relative to base nanoparticle lacking the peptide.

T1 sequence (P51654 25-554 limits assumed, form in doubt): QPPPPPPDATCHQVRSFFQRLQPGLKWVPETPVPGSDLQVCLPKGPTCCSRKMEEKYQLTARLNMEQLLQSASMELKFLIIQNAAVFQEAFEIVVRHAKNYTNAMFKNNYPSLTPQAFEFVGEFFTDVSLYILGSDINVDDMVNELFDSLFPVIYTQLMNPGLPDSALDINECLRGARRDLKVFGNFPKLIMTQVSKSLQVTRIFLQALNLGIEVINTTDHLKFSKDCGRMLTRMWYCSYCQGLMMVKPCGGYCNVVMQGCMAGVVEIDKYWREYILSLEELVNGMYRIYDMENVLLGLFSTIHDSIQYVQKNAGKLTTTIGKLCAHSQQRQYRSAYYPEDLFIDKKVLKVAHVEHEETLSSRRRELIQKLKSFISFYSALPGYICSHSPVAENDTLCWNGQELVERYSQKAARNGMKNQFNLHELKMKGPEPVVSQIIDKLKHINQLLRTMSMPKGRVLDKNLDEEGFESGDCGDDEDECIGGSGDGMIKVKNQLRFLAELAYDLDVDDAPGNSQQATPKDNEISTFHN

In the case of GNP-GalC2(50)-AL(50)-(Ac)YFLTTRQ, in the data set with HCC cells (listed as Au@GalC2:AL:AL-(Ac)-YFLTTRQ), the “Fold-targeting (over base particle)” value is “approximately 5 fold”.

The term IC50 denotes the concentration at which inhibition is half-maximal. A low value points to greater potency in that assay. Take platinum-(IV)-succinate: the IC50 in the data set on HepG2 and in the data set with HepG2 (listed as Pt(IV)-succinate) was 38.6 µM in each case.

Take `COc1cccc2c1C(=O)c1c(O)c3c(c(O)c1C2=O)C[C@@](O)(C(=O)CO)C[C@@H]3O[C@H]1C[C@H](N)[C@H](O)[C@H](C)O1` [Doxorubicin, doxorubicin]: the “cytotoxicity, free drug compared with pay-loaded nanoparticle” value in the data set on HepG2 (HepG2, MTT) is given as “slightly higher cytotoxicity”.

Take “GNP-GalC2-HSPEG8COOH-HSPEG8CONHRLNVGGTYFLTTRQ ″high loading″ (not fully specified (N-terminus); also: on gold nanoparticle with galactose-C2 corona)”: the “Fold-targeting (over base particle)” value in the data set with HCC cells (listed as “high loading” Au@Gal-C2:HSPEG8COOH:HSPEG8CONHRLNVGGTYFLTTRQ) was “approximately 7 fold”.

Regarding “GNP-GalC2-HSPEG8COOH-HSPEG8CONHRLNVGGTYFLTTRQ ″low loading″ (not fully specified (N-terminus); printed as GNP-GalC2-HSPEG8COOH-HSPEG8CONHRLNVGGTYFLTTRQ ″low loading″; also: on gold nanoparticle with galactose-C2 corona)”, the “Fold-targeting (over base particle)” value with HCC cells (listed as “low loading” Au@Gal-C2:HSPEG8COOH:HSPEG8CONHRLNVGGTYFLTTRQ) is listed as “approximately 4.6 fold”.

B1: GNP-GalC2-HSPEG8COOH-HSPEG8CO… ″low loading″ (peptide)
peptide: RLNVGGTYFLTTRQ
modifications: not fully specified (N-terminus); printed as GNP-GalC2-HSPEG8COOH-HSPEG8CONHRLNVGGTYFLTTRQ ″low loading″; also: on gold nanoparticle with galactose-C2 corona
notes: Same construct as the high loading GNP but with fewer peptides per nanoparticle; also called "low loading" Au@Gal-C2:HSPEG8COOH:HSPEG8CO… GNPs
For B1, in data set [1], the “Fold-targeting (over base particle)” value came out at 4.6 fold.

B2: GNP-GalC2-HSPEG8COOH-HSPEG8CO… ″high loading″ (peptide)
peptide: RLNVGGTYFLTTRQ
modifications: not fully specified (N-terminus); also: on gold nanoparticle with galactose-C2 corona
notes: Gold nanoparticle with a corona of galactose-C2 and HSPEG8COOH ligands; Approximately 4 peptides per nanoparticle core, so the copy number is approximate; also called "high loading" Au@Gal-C2:HSPEG8COOH:HSPEG8CO… GNPs
In the case of B2, the “Fold-targeting (over base particle)” value in data set [2] was determined as 7.1 fold.

B3: GNP-GalC2(50)-AL(50)-(Ac)YFLTTRQ (peptide)
peptide: YFLTTRQ
modifications: not fully specified (N-terminus); printed as GNP-GalC2(50)-AL(50)-(Ac)YFLTTRQ; also: linked via amino linker NH2-EG6-SH to gold nanoparticle with galactose-C2 corona
notes: Gold nanoparticle with a corona of galactose-C2-SH and amino linker in approximately 50:50 ratio; also called Au@GalC2:AL:AL-(Ac)-YFLTTRQ
For the molecule B3, the “Fold-targeting (over base particle)” value in data set [3] was 5 fold.
